Measurements from patent US11129782B2, “Derivatives of PPD useful for coloring hair and skin” (National University of Singapore, priority 2017, dated 2021).
Where “and” joins values, the source holds several entries; their conditions need not be identical. Equal entries are not always repeated. Where two headings read alike, the source gives them in different places. One block for each compound: values may come before it.

What was measured:
[1] = Skin permeation in vertical Franz diffusion cells; type: in vitro ADME, porcine; conditions: 8 h; for Penetration profile PPD vs derivatives (times less than PPD): ratio of PPD penetration to that of the compound
Experimental: Porcine ears were generously provided by the NUS Department of Surgery. The ears were frozen at −80° C. until use (up to 3 months) and thawed at room temperature on the day preceding the experiment. Prior to the experiment, the skin was separated from the cartilage and dermatomed to a thickness of ˜1.0 mm using an Acculan™ 3Ti dermatome (Aesculap, Inc., B. Braun, USA).
The PPD and derivatives were dissolved in deionized water at 1% w/v. The PPD and PPD derivatives 1-5 solutions were purged with argon gas to minimize oxidation of the donor solution.
Skin penetration studies were carried out using vertical Franz diffusion cells (PermeGear, USA) immersed in a 37° C. water bath. The donor and receptor volumes were 900 µL and 5 mL, respectively; the mean surface area of penetration was 0.64 cm^2. Upon insertion of the skin pieces into the Franz cells, the skin was equilibrated for 45 min with PBS in the receptor compartment. After equilibration, the skin's trans-epidermal water loss (TEWL) was measured using an Aquaflux AF300 (Biox, UK) to assess the integrity of the skin's stratum corneum barrier. The donor solution, consisting of PPD or derivative 1-5 (n=3 Franz cells each), was then added to the donor compartment and the penetration experiments were conducted for 8 h. The receptor solutions were continuously stirred with magnetic stirrers. At fixed time points, aliquots of 200 μL were taken from the receptor solution of each cell and the receptor solution topped up with 200 μL of fresh PBS. At the end of the experiment, the donor and receptor solutions were removed and the cells dismantled. For the purpose of mass balance on the PPD, PPD derivatives 1-5 the skin pieces and swabs of their outer surfaces were collected and stored in acetonitrile for PPD or derivative 1-5 extraction. The donor solution as well as PBS used to thoroughly wash each part of the Franz cells were also collected.
PPD, PPD derivatives 1-5 and metabolite concentrations in all permeation and mass balance samples were measured by LCMS. PPD steady state fluxes and permeability coefficients were calculated by fitting the solution to Fick's second law of diffusion at the steady state to the linear part of each experimental cumulative amount curve.
The validated method LCMS was applied to quantify PPD, PPD derivative 1-5 and metabolites from skin permeation study samples. FIGS. 3 and 4 show LCMS spectra for the identification of PPD and PPD derivatives 1 and 2 and metabolites from skin permeation study experiment.

HaCaT cells = experiment: In vitro cell cytotoxicity (MTT) assay on HaCaT cells; type: cell-based, human; conditions: for IC50: 72 h incubation, MTT
Excerpt: HaCaT (human, adult, low calcium, high temperature, human adult skin keratinocytes) cells were obtained from the IMB (Institute of Medical Biology) Skin Cell Bank. Fetal bovine serum (FBS), Dulbecco's minimum essential medium (DMEM) and trypsin EDTA solution were purchased from GE healthcare life sciences, Utah. Penicillin/streptomycin, dimethyl sulfoxide (DMSO), and phosphate buffered saline (PBS) were from Fisher Scientific (Singapore). Para-phenylenediamine (PPD) was purchased from Sigma Aldrich (Singapore). PPD analogues such as Dimer, trimer, ethyl hexyl para-phenylenediamine (EHPPD), hexyl para-phenylenediamine (HPPD), Bandrowski base (BB) were synthesized in house.
Cell viability was essentially determined using the MTT assay as described in the literature. The HaCaT cells were grown in DMEM with 10% FBS and 1% penicillin/streptomycin. The cells in T-75 cm^2 culture flasks were incubated with 5% CO2 at 37° C. in a humidified incubator. The HaCaT cells were grown to expected confluency and then they were harvested by trypsinizing the cell with 0.25% trypsin/EDTA and incubated at 37° C. for 5 min to obtain the complete cell detachment. After the incubation, cell pellets were resuspended, and washed twice with 1×PBS. The cell suspension in 1×PBS was counted and adjusted to 1×10^5/mL. A HaCaT keratinocyte suspension (100 μL in 1×PBS) with a cell concentration of 1×10^5 cells/mL) and a test solution (100 μL in milli-Q water) were combined in each well of two 96-well plates. Test solutions with a desired concentration were prepared by serial dilutions of the stock solutions with 1×PBS.
For the cytotoxicity experiment, cells were seeded at a density of 5×10^3 in 200 ul of medium into each well of 96-well plates. Cells were seeded as three sets of four replicates for each concentration. After 24 h of incubation, the cells were washed with PBS and cultured for 72 h with 200 ul of 10% FBS containing DMEM medium, together with the different concentrations of the test compounds ranging from 500 μM to 1.9 μM for PPD and analogues 1-5 and standard in a serial dilution. Then the medium was removed and 100 μl of MTT [3-(4,5-dimethylthiazol-2yl)-2,5-diphenyl-2H-tetrazolium bromide](1 mg/ml) (Alfa Aesar, Singapore) in PBS was added. At the end of 4 h incubation, the plates were removed from the incubator and plates were shaken for 5 min. The absorbance at 570 nm was determined using Bio-Tek plate reader. The cell viability rates were calculated from absorbance readings and represented as percentages of control value (untreated cells).

IL-8 = IL-8 ELISA on THP-1 cell supernatants; type: cell-based, human; conditions: preliminary ELISA, CV75
Experimental: (§1) For cytokine profiling in THP-1, supernatants from wells were collected and then used for cytokine analysis by a Chemokine immunosorbent assay Bio-legend ELISA Max kit. The levels of available IL-8 protein from THP-1 cell supernatants was estimated using this kit which are regulated upon activation of THP-1 model. Surface receptor expression of human CD-86, CD-54, MHC-I and IL-T3 were analyzed by flow cytometry using standard BD FACS analyzer with PE and FITC fluorescent labeled antibodies from Biolegend and e Bioscience.
(§2) In order to understand the effect of modified PPD hairdyes on THP-1 immune sensitization, a certain degree of Cytotoxicity at CV75% viable where 25% cell death is required before evaluation of supernatants in THP-1 models for expression of cytokine IL-8 and receptor expression of CD86, CD54, MHC-I and IL-T3 surface receptors upon treatment with standard PPD and modified hair dye compounds. Most allergens show a specific dose-dependent alteration of CD86 and/or CD54 expression or secretion of cytokine profiles. But depending on chemical, the alteration pattern may vary.

CD86 = CD86 surface expression on THP-1 by flow cytometry; type: cell-based, human
Experimental: as §1, §2

CD54 = CD54 surface expression on THP-1 by flow cytometry; type: cell-based, human
Experimental: as §1, §2

ILT3 = ILT3 surface expression on THP-1 by flow cytometry; type: cell-based, human; conditions: in comparison to DCNB
Experimental: as §1, §2

[2] = system: cysteine peptide (Ac-RFAACAA-COOH); experiment: Direct Peptide Reactivity Assay, cysteine peptide; conditions: for % of Cysteine depletion, Avg / % of Cysteine depletion, Rep 2 / % of Cysteine depletion, Rep 3 / Reactivity Class: 1:10; for % of Cysteine depletion, Rep 1: peptide 0.02 mM : test chemical 0.2 mM (1:10); for Reactivity Class: cysteine
Experimental: For cysteine DPRA, an additional step was performed.
(§3) The mass spectrometric analysis was performed by use of a AB SCIEX QTRAP 5500 tandem mass spectrometry (MS/MS) system (AB SCIEX, Framingham, Mass., USA) operating in triple quadrupole positive mode (ESI+) equipped with an AB Sciex Turbo Ion Spray interface. Acquisition and analysis of data were performed with Analyst software ver. 1.6.2 (Applied Biosystems).

[3] = system: lysine peptide (Ac-RFAAKAA-COOH); experiment: Direct Peptide Reactivity Assay, lysine peptide; conditions: for % of Lysine depletion, Avg / % of Lysine depletion, Rep 2 / % of Lysine depletion, Rep 3 / Reactivity Class: 1:50; for % of Lysine depletion, Rep 1: peptide 0.02 mM : test chemical 1 mM (1:50); for Reactivity Class: lysine
Experimental: as §3

[4] = Solubility observed when preparing dyes; type: physicochemical; conditions: water / organic solvents
[5] = system: cysteine and lysine peptides; experiment: Direct Peptide Reactivity Assay, mean of cysteine and lysine depletion (FIG. 12); conditions: cysteine 1:10 / lysine 1:50 model
[6] = system: cysteine and lysine peptides

% Parent compound Penetrated (mean) ([1]; 1% W/V applied): 0.00015%
% converted to metabolite (mean) ([1]; 1% W/V applied): 0.01%
Permeation less than PPD [1]: about 2 order of magnitude
recovery at 8 h, 1 % w/v ([1]; pig, 1% W/V applied, read-out: % Parent compound Recovery (mean)): 95.4%
Penetration profile PPD vs derivatives (times less than PPD) [1]: 1080
ILT3 (inhibitory receptor) expression (ILT3): increased
SMILES: CCCCCCOC(=O)c1cc(Nc2ccc(N)cc2)ccc1N [PPD derivative 6, hexyl 2-amino-5-((4-aminophenyl)amino)benzoate]
IC50 (HaCaT cells; Homo sapiens, HaCaT, 72 h): 10.5 µM
IL-8 expression (IL-8): do not stimulate IL-8 expression
Expression of CD86 (CD86): not stimulated
Expression of CD54 (CD54): not stimulated

SMILES: Nc1ccc(Nc2ccc(N)cc2)cc1 [PPD derivative 1, 4,4′-Diaminodiphenylamine]
% Parent compound Penetrated (mean) ([1]; 1% W/V applied): 0.00314%
% Parent compound Recovery (mean) ([1]; 1% W/V applied): 93.85%
% converted to metabolite (mean) ([1]; 1% W/V applied): 0.0104%
Penetration profile PPD vs derivatives (times less than PPD) ([1]; listed as PPD 1): 51 and 51.6
Fold increase in IC50 compared to PPD (HaCaT cells): ~2 fold
IC50 (HaCaT cells): 49.3 µM
% of Cysteine depletion, Avg ([2]; 20 min): 41.5%
% of Cysteine depletion, Rep 2 ([2]; 20 min): 40.5%
% of Cysteine depletion, Rep 3 ([2]; 20 min): 41.5%
% of Cysteine depletion, Rep 1 ([2]; 20 min): 42.6%
% of Cysteine depletion, Avg ([2]; 24 h): 69.4%
% of Cysteine depletion, Rep 2 ([2]; 24 h): 69.6%
% of Cysteine depletion, Rep 3 ([2]; 24 h): 69.3%
% of Cysteine depletion, Rep 1 ([2]; 24 h): 69.5%
Reactivity Class ([2]; 20 min): Moderate
Reactivity Class ([2]; 24 h): High
% of Lysine depletion, Avg ([3]; 20 min): 7.79%
% of Lysine depletion, Rep 2 ([3]; 20 min): 6.48%
% of Lysine depletion, Rep 3 ([3]; 20 min): 9.01%
% of Lysine depletion, Rep 1 ([3]; 20 min): 7.89%
% of Lysine depletion, Avg ([3]; 24 h): 23.8%
% of Lysine depletion, Rep 2 ([3]; 24 h): 28%
% of Lysine depletion, Rep 3 ([3]; 24 h): 22.3%
% of Lysine depletion, Rep 1 ([3]; 24 h): 21%
Reactivity Class ([3]; 20 min): Low
Reactivity Class ([3]; 24 h): Moderate
IL-8 expression (IL-8): increased expression
Solubility (in words) [4]: showed solubility in a mixture of 10% methanol in water
Sensitizing potential predicted from mean peptide depletion [5]: high sensitizing agents

SMILES: Nc1ccc(Nc2ccc(Nc3ccc(Nc4ccc(N)cc4)cc3)cc2)cc1 [PPD derivative 8, 4,4′-Bis[(4-aminophenyl)amino]diphenylamine]
IC50 (HaCaT cells): 6.92 µM
IL-8 expression (IL-8): increased expression
Sensitizing potential predicted from mean peptide depletion [6]: high sensitizing agents
